The values below come from patent US8378092B2, “Chlorothiophene-amides as inhibitors of coagulation factors Xa and thrombin” (Sanofi, priority 2008, dated 2013).

SMILES strings stand for the structures. Structures can show the parent of a compound that is named as a salt.

Assay [1] concerns the target T1, human coagulation factor Xa (Homo sapiens, UniProt P00742).
T1 construct: purchased Enzyme Research Laboratories HFXa
Kind of assay: Chromogenic F Xa inhibition assay (substrate S-2765). In kind it is biochemical. Conditions: purified human factor Xa, chromogenic substrate S-2765 62.5 μM, 37° C., mean of duplicates.

Assay [2] deals with human thrombin (Homo sapiens, UniProt P00734). Kind of assay: Chromogenic thrombin inhibition assay (substrate S-2238). In kind it is biochemical. The conditions noted are these: purified human thrombin, chromogenic substrate S-2238 83 μM, 37° C., mean of duplicates.

T1 sequence (P00742 235-488 limits assumed): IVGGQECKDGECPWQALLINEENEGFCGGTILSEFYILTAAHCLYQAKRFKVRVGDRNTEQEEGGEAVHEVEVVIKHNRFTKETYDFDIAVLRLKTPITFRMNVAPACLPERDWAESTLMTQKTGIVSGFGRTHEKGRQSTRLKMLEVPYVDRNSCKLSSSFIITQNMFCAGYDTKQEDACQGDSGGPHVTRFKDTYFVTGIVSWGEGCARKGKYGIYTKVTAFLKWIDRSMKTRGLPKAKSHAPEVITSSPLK
T1 sequence (P00742 41-179 partner limits assumed): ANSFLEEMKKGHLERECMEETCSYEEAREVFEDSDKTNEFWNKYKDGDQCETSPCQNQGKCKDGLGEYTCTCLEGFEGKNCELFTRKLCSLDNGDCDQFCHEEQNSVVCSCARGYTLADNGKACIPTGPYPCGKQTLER

As usually defined, the IC50 is the concentration needed to halve the response being measured. The low end stands for inhibition by little substance, the high end for a need for much substance. Take `CCc1c(N2CCOCC2=O)cccc1S(=O)(=O)N[C@@H](CNC(=O)c1csc(Cl)c1)C(=O)N1CCOC[C@@H]1C` [Example 2, 5-Chloro-thiophene-3-carboxylic acid [(S)-2-[2-ethyl-3-(3-oxo-morpholin-4-yl)-benzenesulfonylamino]-3-((S)-3-methyl-morpholin-4-yl)-3-oxo-propyl]-amide]: the IC50 in assay [1] amounted to 9.8 nM; in assay [2], 250 nM.

Consider `CCc1c(N2CCOCC2=O)cccc1S(=O)(=O)N[C@@H](CNC(=O)c1ccc(Cl)s1)C(=O)N1CCO[C@H](C)C1` [Example 3, 5-Chloro-thiophene-2-carboxylic acid [(S)-2-[2-ethyl-3-(3-oxo-morpholin-4-yl)-benzenesulfonylamino]-3-((R)-2-methyl-morpholin-4-yl)-3-oxo-propyl]-amide], for which the IC50 in assay [1] came out at 1.48 nM; in assay [2], 55 nM.

Take `CCc1c(N2CCOCC2=O)cccc1S(=O)(=O)N[C@@H](CNC(=O)c1ccc(Cl)s1)C(=O)N1CCC[C@@H](OC)C1` [Example 4, 5-Chloro-thiophene-2-carboxylic acid [(S)-2-[2-ethyl-3-(3-oxo-morpholin-4-yl)-benzenesulfonylamino]-3-((R)-3-methoxy-piperidin-1-yl)-3-oxo-propyl]-amide]: the IC50 in assay [1] was determined as 2.8 nM; in assay [2], 61 nM.

For `O=C(NC[C@H](NS(=O)(=O)c1cccc(N2CCOCC2=O)c1Cl)C(=O)N1CCCCCC1)c1ccc(Cl)s1` [Example 5, 5-Chloro-thiophene-2-carboxylic acid {(S)-3-azepan-1-yl-2-[2-chloro-3-(3-oxo-morpholin-4-yl)-benzenesulfonylamino]-3-oxo-propyl}-amide], the values for the IC50 in assay [1] and in assay [2] were 9.8 nM and 49 nM, respectively.

For the compound `COc1c(N2CCOCC2=O)cc(F)cc1S(=O)(=O)N[C@@H](CNC(=O)c1ccc(Cl)s1)C(=O)N1CCCCCC1` [Example 6, 5-Chloro-thiophene-2-carboxylic acid {(S)-3-azepan-1-yl-2-[5-fluoro-2-methoxy-3-(3-oxo-morpholin-4-yl)-benzenesulfonylamino]-3-oxo-propyl}-amide], the IC50 in assay [1] was 0.88 nM; in assay [2] it was 5.64 nM.

`O=C(NC[C@H](NS(=O)(=O)c1cccc(N2CCCCC2=O)c1C(F)(F)F)C(=O)N1CCN(C2CC2)CC1)c1ccc(Cl)s1` [Example 7, 5-Chloro-thiophene-2-carboxylic acid {(S)-3-(4-cyclopropyl-piperazin-1-yl)-3-oxo-2-[3-(2-oxo-piperidin-1-yl)-2-trifluoromethyl-benzenesulfonylamino]propyl}amide trifluoroacetate]: the IC50 in assay [1] was found to be 1.02 nM; in assay [2], 222 nM.

On to `O=C(NC[C@H](NS(=O)(=O)c1cccc(N2CCCCC2=O)c1OC(F)F)C(=O)N1CCN(C2CC2)CC1)c1ccc(Cl)s1` [Example 8, 5-Chloro-thiophene-2-carboxylic acid {(S)-3-(4-cyclopropyl-piperazin-1-yl)-2-[2-difluoromethoxy-3-(2-oxo-piperidin-1-yl)-benzenesulfonylamino]-3-oxo-propyl}-amide trifluoroacetate], for which the IC50 in assay [1] is 0.98 nM; in assay [2], 10.4 nM.

Take `CCOC(=O)C1CCN(C(=O)[C@H](CNC(=O)c2ccc(Cl)s2)NS(=O)(=O)c2cccc(N3CCCCC3=O)c2OC(F)F)CC1` [Example 9, 1-{(S)-3-[(5-Chloro-thiophene-2-carbonyl)-amino]-2-[2-difluoromethoxy-3-(2-oxo-piperidin-1-yl)-benzenesulfonylamino]-propionyl}-piperidine-4-carboxylic acid ethyl ester]: the IC50 in assay [1] came to 0.52 nM; in assay [2] it was 10.5 nM.

`Cc1noc(C2CCN(C(=O)[C@H](CNC(=O)c3ccc(Cl)s3)NS(=O)(=O)c3cccc(N4CCCCC4=O)c3OC(F)F)CC2)n1` [Example 11, 5-Chloro-thiophene-2-carboxylic acid {(S)-2-[2-difluoromethoxy-3-(2-oxo-piperidin-1-yl)-benzenesulfonylamino]-3-[4-(3-methyl-[1,2,4]oxadiazol-5-yl)-piperidin-1-yl]-3-oxo-propyl}amide]: the IC50 in assay [1] was 1.74 nM; in assay [2] it was 381 nM.

For `CN1CCN(C(=O)[C@H](CNC(=O)c2ccc(Cl)s2)NS(=O)(=O)c2cc(F)cc(N3CCCC3)c2Cl)CC1` [Example 13, 5-Chloro-thiophene-2-carboxylic acid [(S)-2-(2-chloro-5-fluoro-3-pyrrolidin-1-yl-benzenesulfonylamino)-3-(4-methyl-piperazin-1-yl)-3-oxo-propyl]-amide trifluoro acetate], the half-inhibitory concentration (IC50) in assay [1] amounted to 1.44 nM; in assay [2] it was 19 nM.

For `O=C(NC[C@H](NS(=O)(=O)c1cccc(N2CCCC2=O)c1Cl)C(=O)N1CCNCC1)c1ccc(Cl)s1` [Example 15, 5-Chloro-thiophene-2-carboxylic acid {(S)-2-[2-chloro-3-(2-oxo-pyrrolidin-1-yl)-benzenesulfonylamino]-3-oxo-3-piperazin-1-yl-propyl}-amide], the results for the IC50 in assay [1] and in assay [2] were 1.32 nM and 658 nM, respectively.

Turning to `COCCN1CCN(C(=O)[C@H](CNC(=O)c2ccc(Cl)s2)NS(=O)(=O)c2cc(F)cc(N3CCCC3=O)c2C)CC1` [Example 16, 5-Chloro-thiophene-2-carboxylic acid {(S)-2-[5-fluoro-2-methyl-3-(2-oxo-pyrrolidin-1-yl)-benzenesulfonylamino]-3-[4-(2-methoxy-ethyl)-piperazin-1-yl]-3-oxo-propyl}-amide trifluoro acetate], the IC50 was found to be 1.3 nM in assay [1] and 54 nM in assay [2].

Regarding `CN1CCN(C(=O)[C@H](CNC(=O)c2ccc(Cl)s2)NS(=O)(=O)c2cccc(N3CCCC3=O)c2C(F)F)CC1` [Example 17, 5-Chloro-thiophene-2-carboxylic acid [(S)-2-[2-difluoromethyl-3-(2-oxo-pyrrolidin-1-yl)-benzenesulfonylamino]-3-(4-methyl-piperazin-1-yl)-3-oxo-propyl]-amide trifluoro acetate], the IC50 in assay [1] turned out to be 1.81 nM; in assay [2], 28 nM.

In the case of `Cc1c(N2CCCC2=O)cccc1S(=O)(=O)N[C@@H](CNC(=O)c1ccc(Cl)s1)C(=O)N1CCc2sccc2C1` [Example 154, 5-Chloro-thiophene-2-carboxylic acid {(S)-3-(6,7-dihydro-4H-thieno[3,2-c]pyridin-5-yl)-2-[2-methyl-3-(2-oxo-pyrrolidin-1-yl)-benzenesulfonylamino]-3-oxo-propyl}-amide], the figures for the half-inhibitory concentration (IC50) in assay [1] and in assay [2] were 1.92 nM and 3.48 nM, respectively.

As for `O=C(NC[C@H](NS(=O)(=O)c1cc(F)cc(N2CCCCC2=O)c1Cl)C(=O)N1CCN(CC(F)(F)F)CC1)c1ccc(Cl)s1` [Example 183, 5-Chloro-thiophene-2-carboxylic acid {(S)-2-[2-chloro-5-fluoro-3-(2-oxo-piperidin-1-yl)-benzenesulfonylamino]-3-oxo-3-[4-(2,2,2-trifluoro-ethyl)-piperazin-1-yl]-propyl}-amide], the IC50 is 0.4 nM in assay [1] and 40 nM in assay [2].

As to `Cc1c(N2CCCC2=O)cc(F)cc1S(=O)(=O)N[C@@H](CNC(=O)c1ccc(Cl)s1)C(=O)N1CCN(C)CC1` [Example 202, 5-Chloro-thiophene-2-carboxylic acid [(S)-2-[5-fluoro-2-methyl-3-(2-oxo-pyrrolidin-1-yl)-benzenesulfonylamino]-3-(4-methyl-piperazin-1-yl)-3-oxo-propyl]-amide], the figures for the IC50 in assay [1] and in assay [2] were 1.31 nM and 27 nM, respectively.
